Molecular target: hMCH-1R (Homo sapiens (Human), UniProt Q99705)
Assay: MCH-1 receptor binding test (125I-MCH binding to hMCH-1R transfected cell membranes)
Details: competition with 100 pM 125I-MCH, membranes of CHO/Galpha16 cells stably transfected with hMCH-1R
Procedure: Res Commun. […] After the incubation the reaction is filtered using a cell harvester through 0.5% PEI treated fibreglass filters (GF/B, Unifilter Packard). The membrane-bound radioactivity retained on the filter is then determined after the addition of scintillator substance (Packard Microscint 20) in a measuring device (TopCount of Packard). […] The analysis of the concentration binding curve is carried out on the assumption of one receptor binding site.

hMCH-1R, sequence (Q99705 whole entry): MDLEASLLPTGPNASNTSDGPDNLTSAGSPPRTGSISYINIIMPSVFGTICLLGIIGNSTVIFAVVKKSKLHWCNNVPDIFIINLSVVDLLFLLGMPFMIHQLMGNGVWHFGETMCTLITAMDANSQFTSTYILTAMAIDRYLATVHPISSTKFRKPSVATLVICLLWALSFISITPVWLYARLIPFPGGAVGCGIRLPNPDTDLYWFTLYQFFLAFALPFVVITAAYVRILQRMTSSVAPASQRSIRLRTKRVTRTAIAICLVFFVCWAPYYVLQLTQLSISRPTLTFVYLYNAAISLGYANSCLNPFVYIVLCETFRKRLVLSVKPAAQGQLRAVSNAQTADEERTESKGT

| SMILES | IC50 [nM] |
| --- | --- |
| Cc1cc(CN2CCCC2)ccc1C(=O)Cn1ccc(OCc2ccc(Br)cn2)cc1=O [Example 4.8, 4-(5-Bromo-pyridin-2-ylmethoxy)-1-[2-(2-methyl-4-pyrrolidin-1-ylmethyl-phenyl)-2-oxo-ethyl]-1H-pyridin-2-one] | 17 |
| Cc1cc(CN2CC[C@@H](O)C2)ccc1C(=O)Cn1ccc(OCc2ccc(Br)cn2)cc1=O [Example 4.9, (R)-4-(5-Bromo-pyridin-2-ylmethoxy)-1-{2-[4-(3-hydroxy-pyrrolidin-1-ylmethyl)-2-methyl-phenyl]-2-oxo-ethyl}-1H-pyridin-2-one] | 20 |
| CCN1CCN(Cc2ccc(C(=O)Cn3ccc(OCc4ccc(Br)cn4)cc3=O)c(C)c2)CC1 [Example 4.10] | 53 |
| Cc1cc(CN2CCOCC2)ccc1C(=O)Cn1ccc(OCc2ccc(Br)cn2)cc1=O [Example 4.11] | 59 |
| Cc1cc(CN2CCC[C@@H](O)C2)ccc1C(=O)Cn1ccc(OCc2ccc(Br)cn2)cc1=O [Example 4.12, (R)-4-(5-Bromo-pyridin-2-ylmethoxy)-1-{2-[4-(3-hydroxy-piperidin-1-ylmethyl)-2-methyl-phenyl]-2-oxo-ethyl}-1H-pyridin-2-one] | 23 |
| CNCc1ccc(C(=O)Cn2ccc(OCc3ccc(Br)cn3)cc2=O)c(C)c1 [Example 4.13, 4-(5-Bromo-pyridin-2-ylmethoxy)-1-[2-(2-methyl-4-methylaminomethyl-phenyl)-2-oxo-ethyl]-1H-pyridin-2-one] | 26 |
| Cc1cc(CN2CCN(C)CC2)ccc1C(=O)Cn1ccc(OCc2ccc(Br)cn2)cc1=O [Example 4.14] | 72 |
| Cc1cc(CNC(C)C)ccc1C(=O)Cn1ccc(OCc2ccc(Br)cn2)cc1=O [Example 4.15, 4-(5-Bromo-pyridin-2-ylmethoxy)-1-{2-[4-(isopropylamino-methyl)-2-methyl-phenyl]-2-oxo-ethyl}-1H-pyridin-2-one] | 18 |
| Cc1cc(CN2CCCCC2)ccc1C(=O)Cn1ccc(OCc2ccc(Br)cn2)cc1=O [Example 4.16] | 12 |
| Cc1cc(CN(C)C(C)C)ccc1C(=O)Cn1ccc(OCc2ccc(Br)cn2)cc1=O [Example 4.17, 4-(5-Bromo-pyridin-2-ylmethoxy)-1-(2-{4-[(isopropyl-methyl-amino)-methyl]-2-methyl-phenyl}-2-oxo-ethyl)-1H-pyridin-2-one] | 18 |
| CCN(C)Cc1ccc(C(=O)Cn2ccc(OCc3ccc(Br)cn3)cc2=O)c(C)c1 [Example 4.18, 4-(5-Bromo-pyridin-2-ylmethoxy)-1-(2-{4-[(ethyl-methyl-amino)-methyl]-2-methyl-phenyl}-2-oxo-ethyl)-1H-pyridin-2-one] | 19 |
| CCN(CC)Cc1ccc(C(=O)Cn2ccc(OCc3ccc(Br)cn3)cc2=O)c(C)c1 [Example 4.20, 4-(5-Bromo-pyridin-2-ylmethoxy)-1-[2-(4-diethylaminomethyl-2-methyl-phenyl)-2-oxo-ethyl]-1H-pyridin-2-one] | 19 |
| Cc1cc(CN2CCC2)ccc1C(=O)Cn1ccc(OCc2ccc(Br)cn2)cc1=O [Example 4.21, 1-[2-(4-Azetidin-1-ylmethyl-2-methyl-phenyl)-2-oxo-ethyl]-4-(5-bromo-pyridin-2-ylmethoxy)-1H-pyridin-2-one] | 18 |
| Cc1cc(CN2CCC[C@@H](O)C2)ccc1C(=O)Cn1ncc(OCc2ccccc2)cc1=O [Example 5.1, (R)-5-Benzyloxy-2-{2-[4-(3-hydroxy-piperidin-1-ylmethyl)-2-methyl-phenyl]-2-oxo-ethyl}-2H-pyridazin-3-one] | 14 |
| Cc1cc(CN2CCC[C@H]2CO)ccc1C(=O)Cn1ncc(OCc2ccccc2)cc1=O [Example 5.3, (S)-5-Benzyloxy-2-{2-[4-(2-hydroxymethyl-pyrrolidin-1-ylmethyl)-2-methyl-phenyl]-2-oxo-ethyl}-2H-pyridazin-3-one] | 11 |
| Cc1cc(CN2CC[C@@H](O)C2)ccc1C(=O)Cn1ncc(OCc2ccccc2)cc1=O [Example 5.4, (R)-5-Benzyloxy-2-{2-[4-(3-hydroxy-pyrrolidin-1-ylmethyl)-2-methyl-phenyl]-2-oxo-ethyl}-2H-pyridazin-3-one] | 12 |
| Cc1cc(CN2CC[C@H](O)C2)ccc1C(=O)Cn1ncc(OCc2ccccc2)cc1=O [Example 5.5] | 11 |
| CCNCc1ccc(C(=O)Cn2ncc(OCc3ccccc3)cc2=O)c(C)c1 [Example 5.6, 5-Benzyloxy-2-[2-(4-ethylaminomethyl-2-methyl-phenyl)-2-oxo-ethyl]-2H-pyridazin-3-one] | 10 |
| Cc1cc(CN2CC(O)C2)ccc1C(=O)Cn1ncc(OCc2ccccc2)cc1=O [Example 5.7, 5-Benzyloxy-2-{2-[4-(3-hydroxy-azetidin-1-ylmethyl)-2-methyl-phenyl]-2-oxo-ethyl}-2H-pyridazin-3-one] | 10 |
| Cc1cc(CN2CCC(O)CC2)ccc1C(=O)Cn1ncc(OCc2ccccc2)cc1=O [Example 5.8] | 15 |
| Cc1cc(CN2CCOC(C)C2)ccc1C(=O)Cn1ncc(OCc2ccccc2)cc1=O (stereo not shown) [Example 5.9, 5-Benzyloxy-2-{2-[2-methyl-4-(2-methyl-morpholin-4-ylmethyl)-phenyl]-2-oxo-ethyl}-2H-pyridazin-3-one] | 30 |
| Cc1cc(CN2CCC(CO)CC2)ccc1C(=O)Cn1ncc(OCc2ccccc2)cc1=O [Example 5.11, 5-Benzyloxy-2-{2-[4-(4-hydroxymethyl-piperidin-1-ylmethyl)-2-methyl-phenyl]-2-oxo-ethyl}-2H-pyridazin-3-one] | 13 |
| Cc1cc(CN2CCCC[C@@H]2CO)ccc1C(=O)Cn1ncc(OCc2ccccc2)cc1=O [Example 5.12, (R)-5-Benzyloxy-2-{2-[4-(2-hydroxymethyl-piperidin-1-ylmethyl)-2-methyl-phenyl]-2-oxo-ethyl}-2H-pyridazin-3-one] | 13 |
| Cc1cc(CN2CCC[C@H](O)C2)ccc1C(=O)Cn1ncc(OCc2ccccc2)cc1=O [Example 5.13, (S)-5-Benzyloxy-2-{2-[4-(3-hydroxy-piperidin-1-ylmethyl)-2-methyl-phenyl]-2-oxo-ethyl}-2H-pyridazin-3-one] | 13 |
| Cc1cc(CN2CCC(C)(O)C2)ccc1C(=O)Cn1ncc(OCc2ccccc2)cc1=O (stereo not shown) [Example 5.14, 5-Benzyloxy-2-{2-[4-(3-hydroxy-3-methyl-pyrrolidin-1-ylmethyl)-2-methyl-phenyl]-2-oxo-ethyl}-2H-pyridazin-3-one] | 10 |
| CCNCc1ccc(C(=O)Cn2ncc(OCc3ccc(F)cn3)cc2=O)c(C)c1 [Example 6.3] | 59 |
| Cc1cc(CN2CCCCC2)ccc1C(=O)Cn1ncc(OCc2ccc(Cl)cn2)cc1=O [Example 7.5] | 16 |

Further lines, results first:

| IC50 [nM] | SMILES |
| --- | --- |
| 38 | Cc1cc(CN2CCCC2)ccc1C(=O)Cn1ncc(OCc2ccc(F)cn2)cc1=O [Example 6.1, 5-(5-Fluoro-pyridin-2-ylmethoxy)-2-[2-(2-methyl-4-pyrrolidin-1-ylmethyl-phenyl)-2-oxo-ethyl]-2H-pyridazin-3-one] |
| 35 | Cc1cc(CN2CCCCC2)ccc1C(=O)Cn1ncc(OCc2ccc(F)cn2)cc1=O [Example 6.2, 5-(5-Fluoro-pyridin-2-ylmethoxy)-2-[2-(2-methyl-4-piperidin-1-ylmethyl-phenyl)-2-oxo-ethyl]-2H-pyridazin-3-one] |
| 58 | Cc1cc(CN2CCC(O)CC2)ccc1C(=O)Cn1ncc(OCc2ccc(F)cn2)cc1=O [Example 6.4] |
| 49 | Cc1cc(CN2CC[C@H](O)C2)ccc1C(=O)Cn1ncc(OCc2ccc(F)cn2)cc1=O [Example 6.6] |
| 26 | Cc1cc(CN2CCC[C@H]2CO)ccc1C(=O)Cn1ncc(OCc2ccc(Cl)cn2)cc1=O [Example 7.1, (S)-5-(5-Chloro-pyridin-2-ylmethoxy)-2-{2-[4-(2-hydroxymethyl-pyrrolidin-1-ylmethyl)-2-methyl-phenyl]-2-oxo-ethyl}-2H-pyridazin-3-one] |
| 71 | CCN1CCN(Cc2ccc(C(=O)Cn3ncc(OCc4ccc(Cl)cn4)cc3=O)c(C)c2)CC1 [Example 7.2] |
| 27 | Cc1cc(CN2CC(O)C2)ccc1C(=O)Cn1ncc(OCc2ccc(Cl)cn2)cc1=O [Example 7.3] |
| 67 | Cc1cc(CN2CCN(C)CC2)ccc1C(=O)Cn1ncc(OCc2ccc(Cl)cn2)cc1=O [Example 7.4] |
| 28 | CNCc1ccc(C(=O)Cn2ncc(OCc3ccc(Cl)cn3)cc2=O)c(C)c1 [Example 7.6, 5-(5-Chloro-pyridin-2-ylmethoxy)-2-[2-(2-methyl-4-methylaminomethyl-phenyl)-2-oxo-ethyl]-2H-pyridazin-3-one] |
| 18 | CCNCc1ccc(C(=O)Cn2ncc(OCc3ccc(Cl)cn3)cc2=O)c(C)c1 [Example 7.7, 5-(5-Chloro-pyridin-2-ylmethoxy)-2-[2-(4-ethylaminomethyl-2-methyl-phenyl)-2-oxo-ethyl]-2H-pyridazin-3-one] |
| 26 | Cc1cc(CN2CCC(CO)CC2)ccc1C(=O)Cn1ncc(OCc2ccc(Cl)cn2)cc1=O [Example 7.8] |
| 32 | Cc1cc(CN2CC[C@@H](O)C2)ccc1C(=O)Cn1ncc(OCc2ccc(Cl)cn2)cc1=O [Example 7.9] |
| 25 | Cc1cc(CN2CCC[C@H](O)C2)ccc1C(=O)Cn1ncc(OCc2ccc(Cl)cn2)cc1=O [Example 7.10] |
| 31 | Cc1cc(CN2CCC[C@@H](O)C2)ccc1C(=O)Cn1ncc(OCc2ccc(Cl)cn2)cc1=O [Example 7.11] |
| 30 | Cc1cc(CN2CC[C@H](O)C2)ccc1C(=O)Cn1ncc(OCc2ccc(Cl)cn2)cc1=O [Example 7.12] |
| 35 | Cc1cc(CN2CCCC[C@@H]2CO)ccc1C(=O)Cn1ncc(OCc2ccc(Cl)cn2)cc1=O [Example 7.13, (R)-5-(5-Chloro-pyridin-2-ylmethoxy)-2-{2-[4-(2-hydroxymethyl-piperidin-1-ylmethyl)-2-methyl-phenyl]-2-oxo-ethyl}-2H-pyridazin-3-one] |

Source: patent publication US8933079B2, “Pyridone and pyridazinone derivatives as anti-obesity agents” (Boehringer Ingelheim International GmbH, priority 2012, dated 2015)
